Measurements: ChEMBL document CHEMBL2073934, “Functional characterization of the mouse organic-anion-transporting polypeptide 2” (Biochim Biophys Acta, 2002)
Where a SMILES comes first, the peptide text is derived from it. [ ]: non-standard residue; d: D form.

B1: Solute carrier organic anion transporter family member 1A4 (Mus musculus) (protein)
chain: MGKSEKEVATHGVRCFSKIKAFLLALTCAYVSKSLSGTYMNSMLTQIERQFGIPTSVVGLINGSFEIGNLLLIIFVSYFGTKLHRPIMIGVGCAVMGLGCFLISIPHFLMGRYEYETTILPTSNLSSNSFVCTENRTQTLKPTQDPTECVKEMKSLMWIYVLVGNIIRGMGETPIMPLGISYIEDFAKSENSPLYIGILETGMTIGPLIGLLLGSSCANIYVDTGSVNTDDLTITPTDTRWVGAWWIGFLVCAGVNILTSIPFFFFPKTLLKEGLQDNGDGTENAKEEKHREKIKEENRGITKDFFLFMKSLSCNPIYMIFILISVIQVNAFINSFTFMPKYLEQQYGKSTAEIVFLMGLYMLPPICLGYLIGGLIMKKFKITVKKAAYIGFWLSLTEYLLSFVSYIMTCDNFPVAGLTTSYEGVQHPLYVENNVLADCNTKCSCLTNTWDPVCGDNGLSYMSACLAGCEKSVGTGTNMVFQNCSCIQSSGNASAVLGLCDKGPECANKLQYFLIISIIGCFIFSLGAIPGYMVLLRCMKSEEKSLGVGLHTFCMRILGGIPAPIYFGALIDRTCLHWGTLKCGEPGACRMYDINSFRRIYLGLPAALRGASFLPALFILILMRKFQFPGDIDSSDTDPAEMKLTAKESKCTNVHRSPTMQNDGERKTKL

How the values were obtained:
[1] = biological target: T1, Solute carrier organic anion transporter family member 1A4 (Mus musculus, UniProt Q9EP96); test: (§1) TP_TRANSPORTER: uptake in Xenopus laevis oocytes; type: functional, cell-based; conditions: oocyte
T1 sequence (Q9EP96 whole entry): B1 chain

[2] = substrate: C[C@H]1O[C@@H](O[C@H]2[C@@H](O)C[C@H](O[C@H]3[C@@H](O)C[C@H](O[C@H]4CC[C@@]5(C)[C@H](CC[C@@H]6[C@@H]5C[C@@H](O)[C@]5(C)[C@@H](C7=CC(=O)OC7)CC[C@]65O)C4)O[C@@H]3C)O[C@@H]2C)C[C@H](O)[C@@H]1O; test: as §1; type: functional, cell-based, Oocyte

Row | Molecule | Activity [1] | Km [2] [µM]
1 | C[C@]12CC[C@H](OS(=O)(=O)O)CC1=CC[C@@H]1[C@@H]2CC[C@]2(C)C(=O)CC[C@@H]12 [PRASTERONE SULFURIC ACID] | substrate [+] | –
2 | C[C@@H]1O[C@@H](O[C@H]2C[C@@H](O)[C@]3(CO)[C@H]4[C@H](O)C[C@]5(C)[C@@H](C6=CC(=O)OC6)CC[C@]5(O)[C@@H]4CC[C@]3(O)C2)[C@H](O)[C@H](O)[C@H]1O [OUABAIN] | substrate [+] | –
3 | O=C1OC(c2ccc(O)c(S(=O)(=O)[O-])c2)(c2ccc(O)c(S(=O)(=O)[O-])c2)c2c(Br)c(Br)c(Br)c(Br)c21.[Na+].[Na+] [SULFOBROMOPHTHALEIN SODIUM] | substrate [+] | –
4 | CC(C)C[C@@H]1NC(=O)[C@@H](C(C)C)NC(=O)[C@@H]2CCCN2C(=O)[C@@H](CC(=O)O)NC(=O)[C@@H](Cc2c[nH]c3ccccc23)NC1=O [BQ-123] (cyclo(L[dW][dD]P[dV])) | substrate [+] | –
5 | C[C@]12CC[C@@H]3c4ccc(OS(=O)(=O)O)cc4CC[C@H]3[C@@H]1CCC2=O [ESTRONE SULFURIC ACID] | substrate [+] | –
6 | B1 | – | 5.7
